Activity calls are given as the source filed them. For most assays here, no stated cut-off is given here; in the data, actives have a measured EC50 and inactives only a lower limit.
How the values were obtained:
[1] = biological target: T1, Zinc finger protein mex-5 (Caenorhabditis elegans, UniProt Q9XUB2); assay: potency of MEX-5 RNA-binding blockers – biochemical, C. elegans, fluorescence polarization, dose response (AID 1960)
T1 sequence (Q9XUB2 whole entry): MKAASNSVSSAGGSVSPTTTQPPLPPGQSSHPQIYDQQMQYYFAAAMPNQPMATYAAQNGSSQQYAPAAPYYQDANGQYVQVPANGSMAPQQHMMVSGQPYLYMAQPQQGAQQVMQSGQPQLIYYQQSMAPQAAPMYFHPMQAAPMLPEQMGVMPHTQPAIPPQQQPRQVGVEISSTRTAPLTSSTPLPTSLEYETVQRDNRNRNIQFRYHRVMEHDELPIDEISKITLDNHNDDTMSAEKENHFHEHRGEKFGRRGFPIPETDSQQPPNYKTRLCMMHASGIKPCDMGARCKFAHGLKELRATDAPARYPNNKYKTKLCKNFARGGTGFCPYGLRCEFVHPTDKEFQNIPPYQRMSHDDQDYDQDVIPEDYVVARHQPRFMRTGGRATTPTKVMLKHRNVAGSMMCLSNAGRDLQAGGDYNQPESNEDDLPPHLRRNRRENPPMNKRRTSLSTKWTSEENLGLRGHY

Ion channel NompC = Ion channel NompC (Danio rerio, UniProt Q7T1G6); assay: Dose response cell-based high-throughput screening assay for agonists of the transient receptor potential channel N1 (TRPN1). [Related pubchem assays (depositor defined):AID1424, AID1448]; assay type: functional
Mucolipin-3 = Mucolipin-3 (Homo sapiens, UniProt Q8TDD5); assay: Fluorescence counterscreen assay for […] agonists: dose response cell-based high-throughput screening assay to identify agonists of the transient receptor potential channel ML3 (TRPML3). [Related pubchem assays: 1424, 1448 ]; assay type: functional
[2] = biological target: T2, RNA-binding protein pos-1 (Caenorhabditis elegans, UniProt G5EF15); assay: disruptors of C. elegans POS-1 RNA interaction – biochemical, fluorescence polarization, dose response (AID 1964);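 further: purified POS-1 fused to maltose binding protein made in E. coli; potency of compounds blocking POS-1 binding to fluorescent RNA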
T2 sequence (G5EF15 whole entry): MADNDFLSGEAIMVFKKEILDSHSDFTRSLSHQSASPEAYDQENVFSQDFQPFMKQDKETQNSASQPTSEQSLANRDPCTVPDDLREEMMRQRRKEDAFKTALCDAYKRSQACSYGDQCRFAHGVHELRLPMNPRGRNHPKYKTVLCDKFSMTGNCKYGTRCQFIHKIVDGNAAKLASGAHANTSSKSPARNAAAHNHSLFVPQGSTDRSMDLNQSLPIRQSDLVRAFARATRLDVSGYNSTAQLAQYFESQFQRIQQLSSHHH

[3] = biological target: Peroxisome proliferator-activated receptor gamma (Homo sapiens, UniProt P37231); assay: PPARg transcriptional activation, reporter cells – cell-based, luminescence, assay provider, dose response (AID 504447); assay type: functional
[4] = DRD fibroblast viability loss – cell-based, non-viral oncogenic, luminescence, dose response (AID 1934); assay type: functional; details: Homo sapiens
[5] = biological target: T3, Replicative DNA helicase DnaB (Mycobacterium tuberculosis, UniProt P9WMR3); assay: DnaB intein splicing inhibitors, dose response, biochemical, cell-free fluorescence (AID 449749); assay type: functional
T3 sequence (P9WMR3 whole entry): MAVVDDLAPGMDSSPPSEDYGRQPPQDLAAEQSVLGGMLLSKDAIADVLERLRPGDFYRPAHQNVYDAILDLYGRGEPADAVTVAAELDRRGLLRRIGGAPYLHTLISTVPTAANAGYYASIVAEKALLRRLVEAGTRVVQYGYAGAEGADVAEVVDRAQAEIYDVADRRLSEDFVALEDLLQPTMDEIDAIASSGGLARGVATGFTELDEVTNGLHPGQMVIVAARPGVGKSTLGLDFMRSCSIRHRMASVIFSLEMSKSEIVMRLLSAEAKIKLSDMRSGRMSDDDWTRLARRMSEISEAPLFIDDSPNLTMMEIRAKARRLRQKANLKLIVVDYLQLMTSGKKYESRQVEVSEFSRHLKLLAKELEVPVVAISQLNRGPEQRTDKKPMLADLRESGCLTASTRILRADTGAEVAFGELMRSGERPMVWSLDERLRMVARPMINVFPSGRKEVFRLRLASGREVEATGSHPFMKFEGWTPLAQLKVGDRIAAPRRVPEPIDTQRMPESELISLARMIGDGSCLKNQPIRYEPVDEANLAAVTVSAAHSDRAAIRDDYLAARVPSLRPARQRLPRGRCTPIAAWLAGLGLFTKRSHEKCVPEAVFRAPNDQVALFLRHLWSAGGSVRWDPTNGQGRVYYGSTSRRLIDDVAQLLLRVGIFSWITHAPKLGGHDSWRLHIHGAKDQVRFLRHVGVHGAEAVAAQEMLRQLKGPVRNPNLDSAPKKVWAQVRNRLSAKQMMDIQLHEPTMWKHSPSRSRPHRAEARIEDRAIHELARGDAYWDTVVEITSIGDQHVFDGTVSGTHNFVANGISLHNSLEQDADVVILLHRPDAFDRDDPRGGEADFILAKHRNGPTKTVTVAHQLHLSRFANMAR

BJ [6] = assay: cells; assay type: functional, cell-based; details: Homo sapiens
BJ [7] = assay: BJ-TERT fibroblast viability loss – cell-based, RAS-independent, luminescence, dose response (AID 1933); assay type: functional; details: Homo sapiens
BJ [8] = assay: growth inhibition of engineered Ras-driven BJ cells – cell-based, alamar blue fluorescence, cherrypicked samples, dose response (AID 2631); assay type: functional; details: Homo sapiens;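 further: confirmatory dose-response assay in RAS-dependent BJ fibroblasts engineered with TERT, LT and ST, with cytotoxicity read by fluorescence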
[9] = Intein inhibitors as potential Tuberculosis drugs, a cytotoxicity screen. [Related pubchem assays (depositor defined):AID2221, AID2223, AID434968, AID435010, AID449749, AID449750, AID489010]; assay type: functional
[10] = biological target: T4, Calpain-2 catalytic subunit (Sus scrofa, UniProt P43367); assay: m-calpain protease blockers, concentration series – biochemical, fluorogenic peptide substrate, dose response (AID 1420); assay type: functional
T4 sequence (P43367 whole entry): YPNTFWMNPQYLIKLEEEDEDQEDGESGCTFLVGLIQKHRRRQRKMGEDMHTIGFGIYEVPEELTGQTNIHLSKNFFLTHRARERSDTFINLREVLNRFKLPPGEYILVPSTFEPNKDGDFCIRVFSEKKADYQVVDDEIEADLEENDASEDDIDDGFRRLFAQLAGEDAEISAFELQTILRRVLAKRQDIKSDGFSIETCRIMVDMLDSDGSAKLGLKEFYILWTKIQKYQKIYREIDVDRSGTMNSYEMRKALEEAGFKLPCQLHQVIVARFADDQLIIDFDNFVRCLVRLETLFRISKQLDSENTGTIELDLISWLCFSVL

BJ [11] = assay: BJ-TERT-LT-ST fibroblast viability loss – cell-based, RAS-independent, luminescence, dose response (AID 1935); assay type: functional; details: Homo sapiens;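 further: BJ fibroblasts immortalized with TERT plus LT and ST oncogenes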
Protein RecA = biological target: T5, Protein RecA (Mycobacterium tuberculosis, UniProt P9WHJ3); assay: Fluorescence Cell-Free Homogeneous Dose Retest to Identify Inhibitors of RecA-Intein Splicing Activity. [Related pubchem assays (depositor defined):AID2097, AID2223, AID489010, AID492950]; assay type: functional
T5 sequence (P9WHJ3 whole entry): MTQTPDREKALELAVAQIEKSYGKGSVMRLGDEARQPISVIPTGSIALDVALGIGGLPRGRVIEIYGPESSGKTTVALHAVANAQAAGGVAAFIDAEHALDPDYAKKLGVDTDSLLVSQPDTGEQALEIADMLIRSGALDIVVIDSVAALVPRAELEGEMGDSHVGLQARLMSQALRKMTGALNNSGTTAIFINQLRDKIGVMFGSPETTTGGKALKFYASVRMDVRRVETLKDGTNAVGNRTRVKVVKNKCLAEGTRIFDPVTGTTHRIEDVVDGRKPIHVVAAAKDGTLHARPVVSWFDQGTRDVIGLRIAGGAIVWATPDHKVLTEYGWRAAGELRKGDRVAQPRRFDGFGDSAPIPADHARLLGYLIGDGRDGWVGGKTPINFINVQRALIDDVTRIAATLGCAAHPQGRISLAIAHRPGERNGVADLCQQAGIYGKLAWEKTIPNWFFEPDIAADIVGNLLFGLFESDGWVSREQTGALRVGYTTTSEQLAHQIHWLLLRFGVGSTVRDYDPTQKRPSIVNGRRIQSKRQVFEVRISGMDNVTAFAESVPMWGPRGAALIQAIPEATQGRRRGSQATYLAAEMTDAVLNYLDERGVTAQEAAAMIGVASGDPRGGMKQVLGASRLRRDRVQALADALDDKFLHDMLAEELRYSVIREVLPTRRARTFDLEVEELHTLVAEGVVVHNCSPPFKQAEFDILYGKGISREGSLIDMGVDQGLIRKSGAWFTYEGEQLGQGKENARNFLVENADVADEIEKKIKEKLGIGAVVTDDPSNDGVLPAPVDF

[12] = biological target: Sphingosine 1-phosphate receptor 4 (Homo sapiens, UniProt O95977); assay: Late-stage fluorescence dose response cell-based assay to identify agonists of the Sphingosine 1-Phosphate Receptor 4 (S1P4): purchased compounds EC50. [Related pubchem assays (depositor defined):AID1509, AID1523, AID1563, AID1686, AID1701, AID1801]; assay type: functional
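Wherever CC50 is given: cells exposed to compound for 72 hours before luminescence readout.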

Mucolipin-3, sequence (Q8TDD5 whole entry, the tested form may be a part): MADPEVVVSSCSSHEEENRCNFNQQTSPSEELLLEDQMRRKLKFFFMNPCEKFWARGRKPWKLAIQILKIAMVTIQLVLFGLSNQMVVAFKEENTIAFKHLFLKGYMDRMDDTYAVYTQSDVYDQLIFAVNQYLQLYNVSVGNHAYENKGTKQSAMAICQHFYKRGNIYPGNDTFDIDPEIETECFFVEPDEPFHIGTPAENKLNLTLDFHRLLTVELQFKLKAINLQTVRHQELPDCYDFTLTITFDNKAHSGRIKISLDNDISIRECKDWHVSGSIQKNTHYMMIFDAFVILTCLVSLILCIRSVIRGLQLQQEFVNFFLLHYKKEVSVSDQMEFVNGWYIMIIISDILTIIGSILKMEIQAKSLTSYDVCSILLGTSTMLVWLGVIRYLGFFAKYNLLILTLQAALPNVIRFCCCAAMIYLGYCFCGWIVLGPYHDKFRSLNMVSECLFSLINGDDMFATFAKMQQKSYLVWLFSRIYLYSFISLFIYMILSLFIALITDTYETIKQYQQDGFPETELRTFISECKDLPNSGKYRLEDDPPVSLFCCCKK
Ion channel NompC, sequence (Q7T1G6 whole entry): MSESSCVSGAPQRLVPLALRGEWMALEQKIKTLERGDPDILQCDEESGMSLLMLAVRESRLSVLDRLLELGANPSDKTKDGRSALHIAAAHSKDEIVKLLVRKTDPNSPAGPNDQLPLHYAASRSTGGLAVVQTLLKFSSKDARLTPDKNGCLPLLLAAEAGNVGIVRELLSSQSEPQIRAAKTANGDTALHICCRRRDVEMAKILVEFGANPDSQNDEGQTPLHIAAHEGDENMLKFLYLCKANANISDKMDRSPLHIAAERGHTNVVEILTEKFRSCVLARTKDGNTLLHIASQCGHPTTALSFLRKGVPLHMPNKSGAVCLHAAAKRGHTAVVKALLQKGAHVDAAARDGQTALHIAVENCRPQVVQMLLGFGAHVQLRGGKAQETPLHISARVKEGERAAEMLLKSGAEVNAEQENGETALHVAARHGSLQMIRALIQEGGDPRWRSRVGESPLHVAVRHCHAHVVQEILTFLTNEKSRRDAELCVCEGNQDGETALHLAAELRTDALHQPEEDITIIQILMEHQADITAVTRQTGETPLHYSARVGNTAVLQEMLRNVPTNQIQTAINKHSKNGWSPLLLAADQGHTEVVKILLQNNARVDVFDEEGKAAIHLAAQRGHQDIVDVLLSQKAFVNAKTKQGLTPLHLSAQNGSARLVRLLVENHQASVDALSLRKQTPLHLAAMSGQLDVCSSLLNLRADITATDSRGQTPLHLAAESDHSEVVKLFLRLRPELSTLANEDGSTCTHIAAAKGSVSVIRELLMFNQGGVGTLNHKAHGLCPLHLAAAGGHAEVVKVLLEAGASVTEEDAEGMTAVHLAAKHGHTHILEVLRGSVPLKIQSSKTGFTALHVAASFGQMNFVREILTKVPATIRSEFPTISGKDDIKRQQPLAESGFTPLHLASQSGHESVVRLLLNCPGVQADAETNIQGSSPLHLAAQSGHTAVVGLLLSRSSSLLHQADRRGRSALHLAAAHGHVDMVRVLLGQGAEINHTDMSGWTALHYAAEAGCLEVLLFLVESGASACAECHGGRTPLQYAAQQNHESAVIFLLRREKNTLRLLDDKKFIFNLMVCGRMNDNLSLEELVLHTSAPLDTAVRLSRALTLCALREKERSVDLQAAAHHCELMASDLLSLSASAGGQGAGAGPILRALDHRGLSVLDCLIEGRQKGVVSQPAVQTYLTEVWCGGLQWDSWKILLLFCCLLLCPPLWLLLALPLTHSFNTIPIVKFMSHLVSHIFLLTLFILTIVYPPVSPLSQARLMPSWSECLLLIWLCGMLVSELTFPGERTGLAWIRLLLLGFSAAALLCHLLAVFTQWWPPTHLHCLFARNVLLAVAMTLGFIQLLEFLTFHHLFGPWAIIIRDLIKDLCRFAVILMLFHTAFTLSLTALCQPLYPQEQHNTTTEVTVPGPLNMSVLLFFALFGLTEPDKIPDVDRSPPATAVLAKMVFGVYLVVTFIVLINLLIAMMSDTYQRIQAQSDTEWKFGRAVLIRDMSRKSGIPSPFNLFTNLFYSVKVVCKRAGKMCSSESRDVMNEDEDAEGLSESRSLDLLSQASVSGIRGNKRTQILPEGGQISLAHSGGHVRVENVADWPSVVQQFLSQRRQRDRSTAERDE
Peroxisome proliferator-activated receptor gamma, sequence (P37231 whole entry): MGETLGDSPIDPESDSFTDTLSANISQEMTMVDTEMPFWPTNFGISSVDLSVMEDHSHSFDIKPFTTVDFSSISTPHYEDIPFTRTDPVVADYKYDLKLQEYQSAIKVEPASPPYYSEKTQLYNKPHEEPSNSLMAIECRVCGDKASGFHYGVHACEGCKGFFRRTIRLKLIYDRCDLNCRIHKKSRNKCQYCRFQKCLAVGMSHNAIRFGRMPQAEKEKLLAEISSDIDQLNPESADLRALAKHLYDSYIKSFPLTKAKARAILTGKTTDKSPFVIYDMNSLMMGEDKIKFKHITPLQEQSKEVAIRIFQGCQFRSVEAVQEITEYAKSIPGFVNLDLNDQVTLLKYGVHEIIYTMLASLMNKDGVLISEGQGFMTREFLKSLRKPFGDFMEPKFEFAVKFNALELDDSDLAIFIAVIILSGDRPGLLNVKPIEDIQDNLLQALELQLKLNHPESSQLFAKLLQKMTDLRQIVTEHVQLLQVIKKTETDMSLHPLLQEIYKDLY
Sphingosine 1-phosphate receptor 4, sequence (O95977 whole entry): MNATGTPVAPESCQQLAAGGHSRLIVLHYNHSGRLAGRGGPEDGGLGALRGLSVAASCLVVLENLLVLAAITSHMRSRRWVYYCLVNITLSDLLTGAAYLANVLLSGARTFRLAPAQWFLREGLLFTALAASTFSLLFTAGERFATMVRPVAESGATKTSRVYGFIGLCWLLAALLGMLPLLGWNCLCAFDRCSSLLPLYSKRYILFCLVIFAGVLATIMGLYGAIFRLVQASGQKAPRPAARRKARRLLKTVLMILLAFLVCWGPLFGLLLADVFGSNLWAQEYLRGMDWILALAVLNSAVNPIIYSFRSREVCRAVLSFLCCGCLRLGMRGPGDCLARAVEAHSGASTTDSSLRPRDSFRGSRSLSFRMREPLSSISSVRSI

CN1C(=O)C(=Cc2sc(=O)n(-c3ccccc3)c2N2CCCCC2)C(=O)N(C)C1=O
EC50 [1]: 19.9 µM (inconclusive)
EC50 (Ion channel NompC): > 3.32 µM (inactive)
EC50 (Mucolipin-3): 10.7 µM (not active)
EC50 [2]: 4.56 µM (inconclusive)

COc1ccc2c(c1)c(=O)c(C(=O)c1ccc(C)cc1)cn2CC(=O)Nc1ccc(F)cc1
EC50 [3]: 14 µM (active)

Cc1ccc(N(C(=O)CCl)C(C(=O)NC2CCCCC2)c2cccnc2)cc1C (stereo not given)
EC50 [4]: 0.413 µM (active)
AC50 [5]: 2.3 µM (active)
EC50 (BJ [6]): 1.25 µM (active)
EC50 (BJ [7]): 0.171 µM (inconclusive)
EC50 (BJ [8]): 0.147 µM (active)
CC50 [9]: 0.1 µM (active)
IC50 [10]: 34.7 µM (not active)
EC50 (BJ [11]): 3.95 µM (active)
EC50 (Protein RecA): 0.339 µM (active)

COc1ccc(CNC(=O)C(C)OC(=O)c2c(C)nn(Cc3ccccc3)c2Cl)cc1 (stereo not given)
EC50 [12]: > 50 µM (inactive)
